Active and inactive are the calls of the source. The rule behind the calls is not given here.
How the values were obtained:
Format in all cases: functional, organism-based
[1] = tested on: Staphylococcus aureus; test: Induction of spa virulent gene expression in Staphylococcus aureus PC203 containing spa::lacZ assessed as color chage at 150 ug/ml at 37 degC in presence of chromogenic beta-galactosidase substrate
[2] = tested on: Staphylococcus aureus; test: Induction of hla virulent gene expression in Staphylococcus aureus PC322 containing hla::lacZ assessed as color chage at 150 ug/ml at 37 degC in presence of chromogenic beta-galactosidase substrate
[3] = tested on: Staphylococcus aureus; test: Induction of hla virulent gene expression in Staphylococcus aureus PC322 containing hla::lacZ assessed as color chage at 150 ug/ml at 37 degC in presence of chromogenic beta-galactosidase substrate and 1 to 50 % glucose solution
[4] = tested on: Staphylococcus aureus; test: Induction of spa virulent gene expression in Staphylococcus aureus PC203 containing spa::lacZ assessed as color chage at 150 ug/ml at 37 degC in presence of chromogenic beta-galactosidase substrate and 1 to 50 % glucose solution
[5] = tested on: Staphylococcus aureus; test: Induction of spa virulent gene expression in Staphylococcus aureus PC203 containing spa::lacZ assessed as color chage at 5 ug/ml at 37 degC in presence of chromogenic beta-galactosidase substrate
[6] = tested on: Staphylococcus aureus; test: Induction of spa virulent gene expression in Staphylococcus aureus PC203 containing spa::lacZ assessed as color chage at 5 ug/ml at 37 degC in presence of chromogenic beta-galactosidase substrate and 1 to 50 % glucose solution
[7] = tested on: Staphylococcus aureus; test: Induction of hla virulent gene expression in Staphylococcus aureus PC322 containing hla::lacZ assessed as color chage at 5 ug/ml at 37 degC in presence of chromogenic beta-galactosidase substrate and 1 to 50 % glucose solution
[8] = tested on: Staphylococcus aureus; test: Induction of hla virulent gene expression in Staphylococcus aureus PC322 containing hla::lacZ assessed as color chage at 5 ug/ml at 37 degC in presence of chromogenic beta-galactosidase substrate

Row | Compound | Activity [1] | Activity [2] | Activity [3] | Activity [4] | Activity [5] | Activity [6] | Activity [7] | Activity [8]
1 | OC[C@H]1O[C@@H](Oc2c[nH]c3ccc(Br)c(Cl)c23)[C@H](O)[C@@H](O)[C@H]1O | Active | Active | inactive | inactive | – | – | – | –
2 | CC[C@H]1OC(=O)[C@H](C)[C@@H](O[C@H]2C[C@@](C)(OC)[C@@H](O)[C@H](C)O2)[C@H](C)[C@@H](O[C@@H]2O[C@H](C)C[C@H](N(C)C)[C@H]2O)[C@](C)(O)C[C@@H](C)C(=O)[C@H](C)[C@@H](O)[C@]1(C)O | – | – | – | – | Active | inactive | inactive | Active
